Results published in patent US20190358206A1, “TOPICAL FORMULATIONS OF BIARYL HETEROCYCLIC COMPOUNDS AND METHODS OF USE THEREOF” (Melinta Subsidiary Corp., priority 2016, published 2019).
In brackets after ≈: the same amount, converted by molar mass. Each block holds one molecule with its values, some of them ahead of it.

How the values were obtained:
[1] = tested on: Staphylococcus aureus 01A1095, Mac-R; experiment: MIC against ribosome-based resistance phenotypes; type: cell-based; conditions: read-out: Minimum Inhibitory Concentration (MIC)
[2] = tested on: S. aureus ATCC 29213; experiment: Broth microdilution MIC (CLSI); type: cell-based
[3] = tested on: S. aureus ATCC 29213; experiment: Agar dilution MIC (CLSI reference method); type: cell-based; conditions: Staphylococcus aureus, ATCC29213
[4] = tested on: B. thetaiotaomicron ATCC 29741; experiment: microbe, parasite or virus in culture; type: cell-based; conditions: for MIC: Bacteroides thetaiotaomicron, ATCC29741, read-out: MIC, Broth
[5] = Solubility of salts in water by HPLC at 23° C.; type: physicochemical; conditions: for Adjusted pH: pH after adjustment to approximately 3.5; for Native pH: supernatant of saturated solution in water
Experimental: In another set of experiments, solubility of various radezolid salts was determined by HPLC. Approximately 1 mL of saturated solution (with excess of solid in solution) of each salt was prepared in water. The mixture was further mixed overnight on a slurry wheel then centrifuged on a desktop centrifuge at maximum speed for approximately 5 min. The supernatant was collected, and pH was measured. Solubility was determined at the native pH. Then the pH was adjusted to approximately 3.5 with sodium hydroxide solution or an acid solution in which salt was generated. The supernatant was filtered through a 0.2 µm nylon syringe filter and diluted into 0.1% formic acid solution immediately after filtration for HPLC. All HPLC analyses were performed using an Agilent 1100 series liquid chromatograph equipped with a diode array detector, degasser, quaternary pump, and an autosampler. […] The column temperature was set to 30° C., and the detector wavelength was 270 nm with a bandwidth of 8 nm and a reference wavelength of 360 nm. The mobile phase A was 0.1% formic acid in water (HPLC grade), mobile phase B was 0.1% formic acid in methanol (HPLC grade). […] The injection volume was 5 μL.

[6] = Dynamic vapor sorption/desorption (DVS); type: physicochemical
Experimental: Dynamic vapor sorption/desorption (DVS) data were collected on a VTI SGA-100 Vapor Sorption Analyzer. […] Samples were not dried prior to analysis. Equilibrium criteria used for analysis were less than 0.0100% weight change in 5 minutes, with a maximum equilibration time of 3 hours if the weight criterion was not met. Data were not corrected for the initial moisture content of the samples. Sodium chloride and polyvinylpyrrolidine (PVP) were used as calibration standards.

[7] = physchem; type: physicochemical; conditions: pH 5.5, aqueous buffer
[8] = Solubility of salts in approved topical solvents; type: physicochemical
Experimental: The solubility of radezolid HCl salt in various approved topical solvents was measured at 19-21° C. by adding a known amount of the radezolid HCl salt to a known amount of the solvent. Increasing amounts of the radezolid HCl salt were added if the solvent was not saturated.
The solubility of radezolid esylate and mesylate salts in various approved topical solvents was measured at 19-21° C. by adding a known amount of the radezolid salts to a known amount of the solvent. Increasing amounts of the radezolid salts were added if the solvent was not saturated.

[9] = Long-term rat safety study (body weight, survival, clinical pathology, exposure)
[10] = in vivo
[11] = tested on: P. granulosum ATCC 25746; experiment: Broth microdilution MIC (CLSI); type: cell-based
[12] = tested on: mammalian cells (e.g., defense cells, macrophages, lung cells, and non-phagocytic cells); conditions: cited from earlier work
[13] = Granuloma pouch: bacterial burden and radezolid levels in pouch and plasma; type: in vivo; conditions: FIGS. 3-4
[14] = tested on: G. vaginalis ATCC 14018; experiment: Agar dilution MIC (CLSI reference method); type: cell-based; conditions: G. vaginalis (isolates of Table 1)
[15] = tested on: F. magna ATCC 15794; experiment: Agar dilution MIC (CLSI reference method); type: cell-based
[16] = Solubility of free base in oily excipients; type: physicochemical; conditions: 19-21° C.
Experimental: The solubility of radezolid free base in various oily excipients was measured at 19-21° C. by adding a known amount of the free base to a known amount of the oily excipients. Increasing amounts of the free base were added if the oily excipient was not saturated.
In some embodiments, facial acne formulations are disclosed herein. In some embodiments, the amount of oil in an emulsion base (cream or lotion) is between 10-15% w/w. In further embodiments, the amount of oil in an emulsion base (cream or lotion) is less than 10%. To obtain a 1% w/w formulation of the free base dissolved in a dispersed oil phase, its solubility in that oil phase needs to be approximately 10% w/w. Radezolid free base was screened in oily excipients at a level of approximately 5% w/w. If an oily excipient could not dissolve at least 5% w/w, it would be unlikely to contribute to higher solubility in other oily excipients (i.e. low potential for synergy).

[17] = tested on: P. acnes ATCC 11828; experiment: Agar dilution MIC (CLSI reference method); type: cell-based; conditions: P. acnes (isolates of Table 1)
[18] = tested on: P. granulosum ATCC 25746; experiment: Agar dilution MIC (CLSI reference method); type: cell-based
[19] = tested on: ten isolates (ATCC); type: cell-based; conditions: for all organisms
[20] = tested on: G. vaginalis ATCC 49145; experiment: Broth microdilution MIC (CLSI); type: cell-based; conditions: G. vaginalis 49145
[21] = Solubility of salts in water, visual/microscopic
Experimental: Approximately 2-3.5 mg of each salt was weighed into a glass vessel at ambient temperature. HPLC grade water, 200 μL, was added to each and stirred with a stir bar for two hours. Samples were inspected for solubility both visually and/or microscopically using a Carl Zeiss SV8 stereomicroscope.

Molecule: CC[C@H]1OC(=O)[C@H](C)[C@@H](O[C@H]2C[C@@](C)(OC)[C@@H](O)[C@H](C)O2)[C@H](C)[C@@H](O[C@@H]2O[C@H](C)C[C@H](N(C)C)[C@H]2O)[C@](C)(O)C[C@@H](C)CN(C)[C@H](C)[C@@H](O)[C@]1(C)O [Azithromycin, azithromycin]
MIC [1]: 128 µg/mL (≈ 171 µM)

MIC lower than radezolid [2]: 8 fold | MIC [3]: 0.25 µg/mL (≈ 0.588 µM)
Molecule: CCC[C@@H]1C[C@@H](C(=O)N[C@@H]([C@H]2O[C@H](SC)[C@H](O)[C@@H](O)[C@H]2O)[C@H](C)Cl)N(C)C1 [Clindamycin, clindamycin]

Molecule: C[C@H]1c2cccc(O)c2C(=O)C2=C(O)[C@]3(O)C(=O)C(C(N)=O)=C(O)[C@@H](N(C)C)[C@@H]3[C@@H](O)[C@@H]21 [DOX, doxycycline]
MIC lower than radezolid [2]: 4 fold | MIC more potent than radezolid ([4]; B. thetaiotaomicron): 4 fold | MIC [4]: 2 µg/mL (≈ 4.5 µM)

Molecule: CC[C@H]1OC(=O)[C@H](C)[C@@H](O[C@H]2C[C@@](C)(OC)[C@@H](O)[C@H](C)O2)[C@H](C)[C@@H](O[C@@H]2O[C@H](C)C[C@H](N(C)C)[C@H]2O)[C@](C)(O)C[C@@H](C)C(=O)[C@H](C)[C@@H](O)[C@]1(C)O [ERY, erythromycin]
MIC [4]: 16 µg/mL (≈ 21.8 µM)

Adjusted pH [5]: 3.6 | Native pH [5]: 2.0 | Solubility at Native pH ([5]; water, 23° C., HPLC): >133.2 mg/mL | Solubility at Adjusted pH ([5]; water, 23° C., HPLC, pH adjusted to approximately 3.5): >116.9 mg/mL | DVS Desorption: weight loss from 95 to 5% RH [6]: Desorption: 2.388% weight loss | DVS Sorption: weight loss upon equilibration at 5% RH [6]: Sorption: 0.017% weight loss
Molecule: O=S(=O)(O)CCS(=O)(=O)O [Ethane-1,2-disulfonate]

Solubility [7]: > 100 µg/mL | Solubility ([5]; pH 4.6, thermodynamic from solid, water, 23° C., HPLC, read-out: Solubility at Native pH): 1700 µg/mL | Adjusted pH [5]: 3.5 | Native pH [5]: 4.6 | DVS Desorption: weight loss from 95 to 5% RH [6]: Desorption: 0.069% weight loss | DVS Sorption: weight gain from 5 to 95% RH [6]: 0.064% weight gain from 5 to | DVS Sorption: weight gain upon equilibration at 5% RH [6]: Sorption: 0.03% weight gain | Solubility ([8]; 50% Ethanol/50% phosphate buffer (pH = 7.4), 19-21° C.): <0.2 % w/w | Solubility ([8]; 50% Ethanol/50% water, 19-21° C.): <0.6 % w/w | Solubility ([8]; Diethylene glycol monoethyl ether (Transcutol), 19-21° C.): <0.2 % w/w | Solubility ([8]; Ethanol, 19-21° C.): <0.2 % w/w | Solubility ([8]; Glycerin, 19-21° C.): <0.2 % w/w | Solubility ([8]; Hexylene glycol, 19-21° C.): <0.2 % w/w | Solubility ([8]; PEG 300, 19-21° C.): <0.2 % w/w | Solubility ([8]; Phosphate buffer (pH = 7.4), 19-21° C.): <0.2 % w/w | Solubility ([8]; Propylene glycol, 19-21° C.): <0.2 % w/w
Molecule: CC(=O)NC[C@H]1CN(c2ccc(-c3ccc(CNCc4c[nH]nn4)cc3)c(F)c2)C(=O)O1.Cl [Hydrochloride, (5S)—N-[3-(2-Fluoro-4′-{[(1H-[1,2,3]triazol-4-ylmethyl)-amino]-methyl}-biphenyl-4-yl)-2-oxo-oxazolidin-5-ylmethyl]-acetamide Chloride]

Molecule: CC(=O)NC[C@H]1CN(c2ccc(N3CCOCC3)c(F)c2)C(=O)O1 [Linezolid, linezolid, reference compound]
hematology at unscheduled euthanization ([9]; rat, 100 mg/kg/day, day 75): decreased red cell mass, absolute reticulocyte and neutrophil counts | bone marrow cellularity ([10]; rat, 100 mg/kg/day): decreased cellularity of sternal and femoral bone marrow | MIC [3]: 2 µg/mL (≈ 5.93 µM)

Molecule: Cc1ncc([N+](=O)[O-])n1CCO [MET, metronidazole]
MIC [4]: 4 µg/mL (≈ 23.4 µM)

Molecule: CC(=O)NC[C@H]1CN(c2ccc(-c3ccc(CNCc4cnn[nH]4)cc3)c(F)c2)C(=O)O1 [Radezolid, N-[3-(2-Fluoro-4′-{[(1H-[1,2,3]triazol-4-ylmethyl)-amino]-methyl}-biphenyl-4-yl)-2-oxo-oxazolidin-5-(S)-ylmethyl]-acetamide]
Broth microdilution: more active than linezolid [11]: 8 fold | accumulation in mammalian cells, greater extent than linezolid [12]: 17 fold | share accumulating in the cytosol of cells [12]: Approximately 60% | share accumulating in the lysosome [12]: approximately 40% | radezolid levels in granuloma pouch versus plasma over time [13]: remain high in granuloma pouch even as they decline in the plasma | Safety margin (Rat NOAEL AUC/Human efficacious AUC) ([9]; rat 200 mg/kg Day 29 vs human 300 mg): 30.8x | Agar dilution MIC more potent than linezolid [14]: 8 fold | Agar dilution MIC more potent than linezolid [15]: 4 fold | Solubility ([16]; Benzyl benzoate (BB)): <1.5 % w/w | Solubility ([16]; Cyclomethicone): <0.75 % w/w | Solubility ([16]; Diisopropyl adipate (DIA)): <1.5 % w/w | Solubility ([16]; Mineral oil): <1 % w/w | Solubility ([16]; Oleic acid): <0.75 % w/w | Agar dilution MIC more potent than linezolid [17]: 4 fold | Agar dilution MIC more potent than linezolid [18]: 8 fold | survival ([10]; both, rat): 100% | safety in long-term rat studies, overall [10]: good safety | changes in hematology, coagulation, clinical chemistry, or urinalysis ([10]; rat): No test article-related changes were observed | agar dilution MICs, range over organisms [19]: 0.06 to 1 µg/mL | Broth microdilution: more active than linezolid [20]: 8 fold | MIC [3]: 1 µg/mL (≈ 2.28 µM)

Molecule: O=C(O)c1ccccc1O [Salicylate]
Solubility [21]: <30 µg/mL

Molecule: CN(C)[C@@H]1C(O)=C(C(N)=O)C(=O)[C@@]2(O)C(O)=C3C(=O)c4c(O)cccc4[C@@](C)(O)[C@H]3C[C@@H]12 [TET, tetracycline]
MIC [4]: 8 µg/mL (≈ 18 µM)

Solubility ([21]; HPLC grade water, ambient temperature): 2600 µg/mL
Molecule: Fumarate

Solubility [21]: 1100 µg/mL
Molecule: Phosphate
